Measurements: US20130195870A1, “ERBB3 Mutations In Cancer” (Genentech, Inc., priority 2011, published 2013)
“Also recorded” adds a separate entry of the source.

B1: MEHD7945A: a dual ERBB3/EGFR antibody that blocks ligand binding (binds domain III of EGFR and ERBB3) (antibody, V domains shown)
VH: EVQLVESGGGLVQPGGSLRLSCAASGFTLSGDWIHWVRQAPGKGLEWVGEISAAGGYTDYADSVKGRFTISADTSKNTAYLQMNSLRAEDTAVYYCARESRVSFEAAMDYWGQGTLVTVSS
VL: DIQMTQSPSSLSASVGDRVTITCRASQNIATDVAWYQQKPGKAPKLLIYSASFLYSGVPSRFSGSGSGTDFTLTISSLQPEDFATYYCQQSEPEPYTFGQGTKVEIKR

What was measured:
[1] = tested on: BaF3 cells stably expressing ERBB3 mutants together with ERBB2; experiment: Colony formation assay (anchorage-independent growth), BaF3 cells; type: cell-based, mouse
Method: BaF3 cells stably expressing EGFR (2×10^5) or ERBB2 (50,000) along with ERBB3 wild-type or mutants, was mixed with 2 mls of IL3-free Methylcellulose ([…] Technologies, Canada) and plated on to 6 well plates and when indicated, cells were treated with different ERBB antibodies or tyrosine kinase or PI3K small molecule inhibitors before plating. Plates were then incubated at 37° C. for 2 weeks. For MCF10A colony formation, 20,000 MCF10A cells stably expressing ERBB3-WT or mutants alone or in combination with EGFR or ERBB2 were mixed with 0.35% agar in DMEM: F12 lacking serum, EGF, and NRG1 and plated on 0.5% base agar. Plates were then incubated at 37° C. for 3 weeks. The presence of colonies was assessed using Gel count imager (Oxford Optronix Ltd, UK). The number of colonies in each plate was quantified using Gel count software (Oxford Optronix Ltd, UK).

[2] = tested on: BaF3 cells stably expressing ERBB3 mutants together with ERBB2; experiment: Survival and proliferation assay, IL-3 independent BaF3 cells; type: cell-based, mouse; details: for blocking oncogenic signaling by ERBB3 mutants: summary statement
Method: BaF3 cells stably expressing the wild-type and mutant ERBB3 alone or together with EGFR or ERBB2, were washed twice in PBS and plated in 3×96-well plates in replicates of eight in complete RPMI medium without IL3. As needed cells were then treated with different concentration of NRG1 and anti-NRG1 antibody or different ERBB antibodies, tyrosine kinase or PI3K small molecule inhibitors to test their effects on survival or cell proliferation, where relevant as depicted in the figures. Viable cells at 0 h and 120 h were determined using Cell Titer-Glo luminescence cell viability kit (Promega Corp., WI) and Synergy 2 (Biotek Instrument, CA) luminescence plate reader. All the cell number values were normalized against Oh values. In order to assess proliferation of MCF10A stably expressing ERBB3-WT or mutants were washed twice in PBS and 5000 cells plated in 96-well plates in replicates of eight in triplicates serum-free media and allowed to proliferate for 5 days. Cell numbers were measure at day 0 and day 5 using the luminescence cell viability kit. […] Mean and statistical significance was determined using GraphPad V software (GraphPad, CA).

[3] = Q809R kinase domain ERBB3 mutant, at the tested dose
[4] = all the mutants tested except Q809R
[5] = all the ERBB3 mutants tested, co-expressed with ERBB2, no IL-3

Molecule	blocking colony formation ([1]; ERBB3 ECD mutants)	blocking colony formation [1, 3]	blocking colony formation [1, 4]	blocking cell proliferation ([2]; ERBB3 ECD mutants)	blocking cell proliferation [2, 3]	blocking cell proliferation [2, 4]	blocking oncogenic signaling by ERBB3 mutants ([2]; in vitro and in vivo, majority/most of the ERBB3 mutants tested)	blocking oncogenic signaling by ERBB3 mutants ([2]; kinase domain mutant Q809R)	blocking colony formation [1, 5]	blocking cell proliferation [2, 5]
CS(=O)(=O)N1CCN(Cc2cc3nc(-c4cccc5[nH]ncc45)nc(N4CCOCC4)c3s2)CC1 [GDC-0941]	very effective	only partially effective; also recorded: only modestly effective	effective	very effective	only partially effective; also recorded: only modestly effective	effective	quite active	not as effective; also recorded: reduced efficacy	–	–
CS(=O)(=O)CCNCc1ccc(-c2ccc3ncnc(Nc4ccc(OCc5cccc(F)c5)c(Cl)c4)c3c2)o1 [lapatinib]	–	–	–	–	–	–	–	–	quite effective	quite effective
B1	–	–	–	–	–	–	–	–	effective	–
